We go through two compounds from article PMC11094368, “Modulating mycobacterial envelope integrity for antibiotic synergy with benzothiazoles” (Life Science Alliance, 2024).

What all share (test): microbe, parasite or virus in culture
Test [1] concerns T1, Acinetobacter baumannii 1757.
T1 construct: 1757
Further details: species or system E. coli, B. subtilis, K. pneumoniae, A. baumannii; bacterial growth inhibition in LB, twofold dilutions, OD600 tracking. The following applies: Acinetobacter baumannii, 1757, read-out: MIC50.

Test [2] relates to T2, Acinetobacter baumannii LMG01041.
T2 construct: LMG01041
Further details: species or system E. coli, B. subtilis, K. pneumoniae, A. baumannii; bacterial growth inhibition in LB, twofold dilutions, OD600 tracking. The following applies: Acinetobacter baumannii, LMG01041, read-out: MIC50.

Another test deals with T3, Bacillus subtilis 168.
T3 construct: 168
Further details: species or system E. coli, B. subtilis, K. pneumoniae, A. baumannii; bacterial growth inhibition in LB, twofold dilutions, OD600 tracking. The following applies: Bacillus subtilis, 168, read-out: MIC50.

Another test deals with T4, Escherichia coli K12.
T4 construct: K12
More on the design: species or system E. coli, B. subtilis, K. pneumoniae, A. baumannii; bacterial growth inhibition in LB, twofold dilutions, OD600 tracking. The following applies: Escherichia coli, K12, read-out: MIC50.

The test system of test [3] is T5, Klebsiella pneumoniae LMG20218.
T5 construct: LMG20218
Further details: species or system E. coli, B. subtilis, K. pneumoniae, A. baumannii; bacterial growth inhibition in LB, twofold dilutions, OD600 tracking. The following applies: Klebsiella pneumoniae, LMG20218, read-out: MIC50.

The subject of test [4] is T6, Mycobacterium abscessus 144C.
T6 construct: 144C
More on the design: resazurin microtiter plate assay (REMA), growth inhibition in 7H9 ADS glycerol tyloxapol. The following applies: Mycobacteroides abscessus, 144C, 48 h, read-out: MIC50.

Test [5] deals with T7, Mycobacterium abscessus RIVM.
T7 construct: RIVM
More on the design: resazurin microtiter plate assay (REMA), growth inhibition in 7H9 ADS glycerol tyloxapol. The following applies: Mycobacteroides abscessus, 48 h, read-out: MIC50.

In a further test the test system is T8, M. marinum.
T8 construct: M^USA (wild type)
More on the design: Resazurin microtiter plate assay (REMA), fluorescence; MIC90 growth inhibition in HdB medium with Tween-80, 30 °C. The following applies: Mycobacterium marinum, 96 h; MIC90, HdB medium with Tween-80. Here is the method:
The resazurin microtiter plate assay (REMA) was used to determine minimal inhibitory concentrations (MIC) of the compound toward mycobacterial species ([Palomino et al, 2002]). Selected compounds or antibiotics were diluted in the bacterial growth medium as twofold serial dilutions in a 96-well plate. Bacteria were routinely grown until the mid-logarithmic phase, harvested by centrifugation (3,000g, 10 min), washed in PBS supplemented with 0.02% tyloxapol, resuspended in the growth medium, and added to the well plate containing compound dilutions, to achieve the final OD600 of 0.001 per well. […] When the color conversion of the dye was observed, the fluorescence was measured using a BioTek plate reader (Synergy H1), bottom reading mode, and excitation 560 nm/emission 590 nm. The MIC of compounds toward E. coli, Bacillus subtilis, K. pneumoniae, and A. baumannii was determined by tracking changes in the OD600. […] Plates were sealed and incubated at 37°C with 3 mm continuous linear shaking in a BioTek plate reader (Synergy H1), and the bacterial growth was tracked by measuring the OD600 every 15 min. […] Thus, we evaluated compounds from the benzothiazole library for their in vitro activity using the HdB medium with Tween-80 by REMA (Table S6).

For test [6], the system named is T9, Mycobacterium smegmatis MC^2-155.
T9 construct: MC2-155
Further details: resazurin microtiter plate assay (REMA), growth inhibition in 7H9 ADS glycerol tyloxapol. The following applies: Mycolicibacterium smegmatis, 24 h, read-out: MIC50.

Regarding `CCOc1ccc2nc(N(Cc3ccccc3)C(C)=O)sc2c1` [BT-08, N-Benzyl-N-(6-ethoxybenzo[d]thiazol-2-yl)acetamide], the IC50 (in test [1]; in test [2]; with Bacillus subtilis 168; in the test on Escherichia coli K12; in [3]; in test [4]) was more than 40 µM throughout. In addition, in test [5], the IC50 is more than 40 µM.
Consider `CCOc1ccc2nc(N(Cc3ccccc3OC)C(C)=O)sc2c1` [BT-37], for which, in the test on M. marinum, the MIC90 was 0.3 µM. Moreover, the IC50 (in test [1]; in test [2]; in the test with Bacillus subtilis 168; in the test on Escherichia coli K12; in test [3]; in test [4]) was more than 40 µM each time. Also, the IC50 in test [5] and in [6] was more than 40 µM in each case.
